Measured values: patent US20260293902A1, “METHODS OF CONTROLLING OR PREVENTING INFESTATION OF PLANTS BY THE PHYTOPATHOGENIC MICROORGANISM CORYNESPORA CASSIICOLA” (SYNGENTA CROP PROTECTION AG, priority 2023, published 2026)

Experiments:
[1] = tested on: Corynespora cassiicola; test: Control of Corynespora cassiicola (target leaf spot) in vitro: inhibition of fungal growth in nutrient broth (PDB); type: cell-based; conditions: 24° C., 3-4 days, photometric 620 nm, read-out: control of Corynespora cassiicola (inhibition of growth vs untreated control)
Experimental: Conidia of the fungus from cryogenic storage were directly mixed into nutrient broth (PDB potato dextrose broth). A DMSO solution of the test compounds was placed into a microtiter plate (96-well format) and the nutrient broth containing the fungal spores was added to it. The test plates were incubated at 24° C. and the inhibition of growth (% control of Corynespora cassiicola) was determined photometrically after 3-4 days at 620 nm. The activity of a compound is derived by comparing the inhibition of growth in the treated test solution to the growth in the untreated check. The concentration of the compounds was 6.7, 2.2, 0.74, 0.25, and 0.082 ppm.

[2] = tested on: Corynespora cassiicola; test: Control of Corynespora cassiicola (target leaf spot) on soybean plants under field conditions; type: in vivo; conditions: for Control vs. untreated (%) / Mean severity (percentage of leaf area covered by disease lesions): three foliar applications, soybean, Brazil
Experimental: Tested fungicides were formulated and applied to soybean plants in a foliar broadcast spray using a handheld horizontal boom sprayer. Three applications were made over the course of the growing season, starting 45 days after crop emergence, with following applications at 14-day intervals. Trials were conducted across five locations in Brazil. Assessments of severity of infection from Corynespora cassiicola were made at weekly intervals, based on the percentage of leaf area covered by disease lesions. The results reflect the median scores for these assessments, excluding those with less than 10% severity in the untreated checks to limit the confounding effect of low disease pressure. Values are expressed as the mean disease severity score and as the percentage control relative to the untreated. The comparison is made between Compound A-1.3 at 35 grams active ingredient per hectare and the commercial compounds trifloxystrobin and picoxystrobin at their label rate of 60 grams active ingredient per hectare.

[3] = Trial 1, 60 g/ha, untreated check 24.9
[4] = Trial 2, 60 g/ha, untreated check 18.8

| SMILES | inhibition of growth at 2.2 ppm [1] [%] | inhibition of growth at 6.7 ppm [1] [%] | Control vs. untreated (%) ([2]; Trial 1, 60 g/ha) | Mean severity (percentage of leaf area covered by disease lesions) [2, 3] | Control vs. untreated (%) ([2]; Trial 2, 60 g/ha) | Mean severity (percentage of leaf area covered by disease lesions) [2, 4] | also measured |
| --- | --- | --- | --- | --- | --- | --- | --- |
| COC(=O)NCc1cc(-c2ccn(-c3c(F)cc(C4CC4)cc3F)n2)ccc1C [Compound A-1.3, methyl N-[[5-[1-(4-cyclopropyl-2,6-difluoro-phenyl)pyrazol-3-yl]-2-methyl-phenyl]methyl]carbamate] | ≥ 50 | ≥ 70 | – | – | – | – | inhibition of growth at 0.74 ppm ([1]; 0.74 ppm): ≥ 50%; Control vs. untreated (%) ([2]; Trial 1, 35 g/ha): 63.9%; Mean severity (percentage of leaf area covered by disease lesions) ([2]; Trial 1, 35 g/ha, untreated check 24.9): 9.9; Control vs. untreated (%) ([2]; Trial 2, 35 g/ha): 68.0%; Mean severity (percentage of leaf area covered by disease lesions) ([2]; Trial 2, 35 g/ha, untreated check 18.8): 5.3; control of Corynespora cassiicola compared with commercial compounds, in words ([2]; field trials 1 and 2, 35 g/ha vs trifloxystrobin and picoxystrobin at 60 g/ha): better control of Corynespora cassiicola than both trifloxystrobin and picoxystrobin |
| CO/C=C(/C(=O)OC)c1ccccc1COc1cccc(C(F)(F)F)n1 [Picoxystrobin, picoxystrobin] | – | – | 45.9 | 14.8 | 20.0 | 14.0 | – |
| CON=C(C(=O)OC)c1ccccc1CON=C(C)c1cccc(C(F)(F)F)c1 [trifloxystrobin] | – | 50 | 35.3 | 18.1 | 6.7 | 16.0 | – |
| CO/C=C(/C(=O)OC)c1ccccc1Oc1cc(Oc2ccccc2C#N)ncn1 [azoxystrobin] | – | 50 | – | – | – | – | – |
| COC(=O)N(OC)c1ccccc1COc1ccn(-c2ccc(Cl)cc2)n1 [pyraclostrobin] | – | 50 | – | – | – | – | – |
| COC(=O)NCc1cc(-c2ccn(-c3c(F)cc(C(C)C)cc3F)n2)ccc1C [Compound A-1.1, methyl N-[[5-[1-(2,6-difluoro-4-isopropyl-phenyl)pyrazol-3-yl]-2-methyl-phenyl]methyl]carbamate] | ≥ 50 | ≥ 50 | – | – | – | – | – |
